ChEMBL document CHEMBL1132912, “Cytotoxic alpha-bromoacrylic derivatives of distamycin analogues modified at the amidino moiety” (Bioorg Med Chem Lett, 2000)

What was measured:
Format in all cases: functional
[1] = tested on: Mus musculus; assay: In vivo antileukemic activity was determined in mice infected with L1210 leukemia cell after intravenous of treated versus untreated mice 10)
[2] = tested on: Mus musculus; assay: In vivo antileukemic activity was determined on L1210 leukemia cell in mice (O.D.=optimal (non-toxic) dose <LD10)
[3] = tested on: Mus musculus; assay: In vivo antileukemic activity was determined in mice infected with L1210 leukemia cell after intravenous administration (T/C=median survival time of treated versus untreated mice 10)

| Structure (SMILES) | T/C [1] [%] | OD [2] [mg/kg] | T/C [3] [%] |
| --- | --- | --- | --- |
| C=C(Br)C(=O)Nc1cc(C(=O)Nc2cc(C(=O)Nc3cc(C(=O)Nc4cc(C(=O)NCCN=C(N)N)n(C)c4)n(C)c3)n(C)c2)n(C)c1.Cl | 196 | 1.56 | – |
| C=C(Br)C(=O)Nc1cc(C(=O)Nc2cc(C(=O)Nc3cc(C(=O)Nc4cc(C(=O)NCCC(=N)NC#N)n(C)c4)n(C)c3)n(C)c2)n(C)c1.Cl | 157 | 3.13 | – |
| C=C(Br)C(=O)Nc1cc(C(=O)Nc2cc(C(=O)Nc3cc(C(=O)Nc4cc(C(=O)NCCC#N)n(C)c4)n(C)c3)n(C)c2)n(C)c1.Cl | – | 12.5 | 157 |
| C=C(Br)C(=O)Nc1cc(C(=O)Nc2cc(C(=O)Nc3cc(C(=O)Nc4cc(C(=O)NCC/C(=N/C)NC)n(C)c4)n(C)c3)n(C)c2)n(C)c1.Cl | 258 | 1.56 | – |
| C=C(Br)C(=O)Nc1cc(C(=O)Nc2cc(C(=O)Nc3cc(C(=O)Nc4cc(C(=O)NCCC(=N)NC)n(C)c4)n(C)c3)n(C)c2)n(C)c1.Cl | 150 | 3.13 | – |
| C=C(Br)C(=O)Nc1cc(C(=O)Nc2cc(C(=O)Nc3cc(C(=O)Nc4cc(C(=O)NCCC(=N)NO)n(C)c4)n(C)c3)n(C)c2)n(C)c1.Cl | 186 | 6.25 | – |
| C=C(Br)C(=O)Nc1cc(C(=O)Nc2cc(C(=O)Nc3cc(C(=O)Nc4cc(C(=O)NCCC(N)=O)n(C)c4)n(C)c3)n(C)c2)n(C)c1.Cl | 169 | 6.25 | – |
